Species on record: Rattus norvegicus
Experiment: Open TG-GATES - Regimen: Daily Repeat
Assay type: toxicity, organism-based, Sprague-Dawley
Design: regimen Daily Repeat, gender Male, age 6 weeks
Conditions: in vivo, po, 100 mg/kg, route gavage, dose level Low; for APTT / Bas / Eos / Fbg / Hb / Ht / Lym / MCH / MCHC / MCV / Mono / Neu / PT / Plat / RBC / Ret / WBC: tissue Blood; for KIDNEY_L / KIDNEY_R / KIDNEY_TOTAL: tissue Kidney; for LIVER: tissue Liver; for A/G / ALP / ALT / AST / BUN / CRE / Ca / Cl / DBIL / GLC / IP / K / LDH / Na / PL / RALB / TBIL / TC / TG / TP / gamma-GTP: tissue Plasma

## CCOc1ccc(NC(=O)CC(C)O)cc1 (configuration not stated) [BUCETIN]
72 h, time 3 day
  TERMINAL_BW: 249.8 g
  APTT: 17.5 s
  Bas: 0%
  Eos: 0.8%
  Fbg: 309.6 mg/dL
  Hb: 13.8 g/dL
  Ht: 41.5%
  Lym: 76.4%
  MCH: 21.2 pg
  MCHC: 33.2%
  MCV: 63.9 fL
  Mono: 3.4%
  Neu: 18.8%
  PT: 14.1 s
  Plat: 126.2 x10_4/uL
  RBC: 650.6 x10_4/ul
  Ret: 6.9%
  WBC: 79.2 x10_2/uL
  KIDNEY_L: 1 g
  KIDNEY_R: 1.1 g
  KIDNEY_TOTAL: 2.1 g
  LIVER: 12.1 g
  A/G: 0.9
  ALP: 1621.2 IU/L
  ALT: 35.2 IU/L
  AST: 62.4 IU/L
  BUN: 14.4 mg/dL
  CRE: 0.2 mg/dL
  Ca: 11 mg/dL
  Cl: 105.6 meq/L
  DBIL: 0.02 mg/dL
  GLC: 188.4 mg/dL
  IP: 7.6 mg/dL
  K: 4.2 meq/L
  LDH: 76.6 IU/L
  Na: 143 meq/L
  PL: 163.8 mg/dL
  RALB: 2.7 g/dL
  TBIL: 0.044 mg/dL
  TC: 82 mg/dL
  TG: 116.4 mg/dL
  TP: 5.9 g/dL
  gamma-GTP: 1 IU/L
[…], time 7 day
  TERMINAL_BW: 303 g
  APTT: 17.7 s
  Bas: 0%
  Eos: 0.8%
  Fbg: 276.6 mg/dL
  Hb: 13.4 g/dL
  Ht: 40.1%
  Lym: 77.8%
  MCH: 20.5 pg
  MCHC: 33.5%
  MCV: 61.2 fL
  Mono: 2.8%
  Neu: 17.6%
  PT: 14 s
  Plat: 121.8 x10_4/uL
  RBC: 655.4 x10_4/ul
  Ret: 5.8%
  WBC: 116.6 x10_2/uL
  KIDNEY_L: 1.3 g
  KIDNEY_R: 1.3 g
  KIDNEY_TOTAL: 2.5 g
  LIVER: 14.8 g
  A/G: 0.8
  ALP: 1437.2 IU/L
  ALT: 42.8 IU/L
  AST: 69.6 IU/L
  BUN: 15.8 mg/dL
  CRE: 0.2 mg/dL
  Ca: 11 mg/dL
  Cl: 105 meq/L
  DBIL: 0.022 mg/dL
  GLC: 188.4 mg/dL
  IP: 7.3 mg/dL
  K: 4.2 meq/L
  LDH: 103.8 IU/L
  Na: 144.4 meq/L
  PL: 172.8 mg/dL
  RALB: 2.7 g/dL
  TBIL: 0.04 mg/dL
  TC: 80.6 mg/dL
  TG: 143 mg/dL
  TP: 6 g/dL
  gamma-GTP: 1.2 IU/L
[…], time 14 day
  TERMINAL_BW: 338.2 g
  APTT: 19.2 s
  Bas: 0%
  Eos: 0.8%
  Fbg: 287.8 mg/dL
  Hb: 14.6 g/dL
  Ht: 43.2%
  Lym: 74.6%
  MCH: 20.1 pg
  MCHC: 33.9%
  MCV: 59.3 fL
  Mono: 2.4%
  Neu: 21.4%
  PT: 13.9 s
  Plat: 116.5 x10_4/uL
  RBC: 729.2 x10_4/ul
  Ret: 4.1%
  WBC: 86.9 x10_2/uL
  KIDNEY_L: 1.3 g
  KIDNEY_R: 1.2 g
  KIDNEY_TOTAL: 2.5 g
  LIVER: 14.9 g
  A/G: 0.8
  ALP: 1590.2 IU/L
  ALT: 34.4 IU/L
  AST: 62.6 IU/L
  BUN: 14.6 mg/dL
  CRE: 0.2 mg/dL
  Ca: 11.1 mg/dL
  Cl: 105.8 meq/L
  DBIL: 0.02 mg/dL
  GLC: 191 mg/dL
  IP: 7.4 mg/dL
  K: 3.8 meq/L
  LDH: 77.4 IU/L
  Na: 145.2 meq/L
  PL: 159.2 mg/dL
  RALB: 2.8 g/dL
  TBIL: 0.06 mg/dL
  TC: 71.2 mg/dL
  TG: 145 mg/dL
  TP: 6.1 g/dL
  gamma-GTP: 1.2 IU/L
[…], time 28 day
  TERMINAL_BW: 405.9 g
  APTT: 17.9 s
  Bas: 0.2%
  Eos: 1%
  Fbg: 280.4 mg/dL
  Hb: 15.6 g/dL
  Ht: 44.9%
  Lym: 81%
  MCH: 19.5 pg
  MCHC: 34.9%
  MCV: 55.9 fL
  Mono: 2%
  Neu: 15%
  PT: 14.1 s
  Plat: 114.4 x10_4/uL
  RBC: 802.8 x10_4/ul
  Ret: 2.5%
  WBC: 132 x10_2/uL
  KIDNEY_L: 1.4 g
  KIDNEY_R: 1.4 g
  KIDNEY_TOTAL: 2.9 g
  LIVER: 16.3 g
  A/G: 0.8
  ALP: 1115.2 IU/L
  ALT: 32.6 IU/L
  AST: 64.6 IU/L
  BUN: 15.8 mg/dL
  CRE: 0.3 mg/dL
  Ca: 11 mg/dL
  Cl: 104.8 meq/L
  DBIL: 0.022 mg/dL
  GLC: 188.6 mg/dL
  IP: 5.9 mg/dL
  K: 3.9 meq/L
  LDH: 82.8 IU/L
  Na: 145.2 meq/L
  PL: 155 mg/dL
  RALB: 2.9 g/dL
  TBIL: 0.06 mg/dL
  TC: 70.4 mg/dL
  TG: 145 mg/dL
  TP: 6.4 g/dL
  gamma-GTP: 1.4 IU/L

From ChEMBL document CHEMBL3885861, “Open TG-GATES”
